This note sets out measurements from EP0174458A1, “Use of 4H-1,4 benzothiazines in the prophylaxis and therapy of diseases of the breath ways, inflammations, rheumatisms, thromboembolic diseases, ischemia and infarctus, heart rhythm disorders, arteriosclerosis and dermatosis, therapeutic agents for this purpose and reactive compounds which are …” (BAYER AG, priority 1984, dated 1986).

A word on the pIC50: it is the negative decadic logarithm of the IC50, by convention in mol/L. A lower pIC50 goes with a high IC50.

pIC50: −log10 of the molar value.

Test [1] deals with durch Arachidonsäure induzierten Thromboembolie. Briefly: Protection against arachidonic acid induced thromboembolism. The test is classed as in vivo. To be noted: 100 mg/kg p.o., Kaninchen, 1,5 mg/kg Na-arachidonat. The procedure:
In diesem Modell wirken Substanzen, die mit der Prostaglandin- und Thromboxanbiosynthese interferieren. Kaninchen werden 1,5 mg/kg Na-arachidonat in eine marginale Ohrvene injiziert. Die Tiere sterben innerhalb von Minuten, vermutlich aufgrund vasospastischer Cyclooxygenase- und Lipoxygenaseprodukte sowie embolisierender Plättchenthromben. Vorbehandlung mit den erfindungsgemäßen Verbindungen schützt die Tiere, so daß diese überleben. Literatur: Silver, M.J. et al., Science 183, 1085, 1974 Seuter, F., Busse, W.D., Agents and Actions, Suppl. 4, 175, 1979.

The next test has as its target T1, 5-Lipoxygenase (Homo sapiens, UniProt P09917).
T1 sequence (P09917 1-674): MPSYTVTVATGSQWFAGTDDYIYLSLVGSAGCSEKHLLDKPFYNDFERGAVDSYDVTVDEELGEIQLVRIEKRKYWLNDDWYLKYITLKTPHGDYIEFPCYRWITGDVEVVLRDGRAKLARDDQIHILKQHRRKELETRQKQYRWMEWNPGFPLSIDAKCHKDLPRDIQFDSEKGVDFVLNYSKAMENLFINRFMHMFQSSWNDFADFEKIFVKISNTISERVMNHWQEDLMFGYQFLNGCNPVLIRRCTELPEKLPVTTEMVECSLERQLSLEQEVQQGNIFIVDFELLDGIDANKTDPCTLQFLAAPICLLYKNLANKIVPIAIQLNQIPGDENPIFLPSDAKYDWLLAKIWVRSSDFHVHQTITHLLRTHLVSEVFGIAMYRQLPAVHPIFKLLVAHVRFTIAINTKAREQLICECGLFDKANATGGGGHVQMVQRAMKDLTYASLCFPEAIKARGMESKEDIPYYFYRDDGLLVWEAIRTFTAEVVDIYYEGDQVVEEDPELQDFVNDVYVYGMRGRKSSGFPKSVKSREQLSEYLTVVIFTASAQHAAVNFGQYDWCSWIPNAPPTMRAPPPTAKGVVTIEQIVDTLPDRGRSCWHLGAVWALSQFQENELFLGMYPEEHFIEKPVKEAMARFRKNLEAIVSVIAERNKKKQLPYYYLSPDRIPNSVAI
Nature of the test: cell-based.

A further test concerns Prostacyclin (PGI2). Nature of the test: Prostacyclin stimulation in aortic rings ex vivo. To be noted: 30 mg/kg p.o., Ratten. The procedure:
Aortenringe von mit Prüfsubstanzen vorbehandelten Ratten werden 10 Minuten bei 37°C in Trispuffer (pH 7,8) inkubiert. Das sich bildende Prostacyclin wird nach Umwandlung zu dem stabilen 6-Keto-PGF radioimmunologisch bestimmt. Literatur: Mc Intyre, D.E., Salzman, E.W., Thrombos. Haemostas. 46, 19, 1981. Seuter, F. et al., 6th International Symposium on Atherosclerosis, Abstr. 270, Berlin 1982.

Source text for 5-Lipoxygenase: Die Hemmung der Freisetzung von 5-HETE und Leukotrien B4 aus den Leukozyten stellt ein Maß für den lipoxygenasehemmenden Effekt der erfindungsgemäßen Verbindungen dar.
Der Test mit den Humanleukozyten wurde nach Borgeat und Samuelsson (J. Biol. Chem. 254, 2643, 1979 und Proc. Natl. Acad. Sci. USA, 76, 2148, 1979) durchgeführt.
Die im vorliegenden Beispiel verwendeten Human PMN-Leukozyten (w95 %) wurden aus heparinisiertem Vollblut durch eine Dextran-Sedimentation und anschließende Dichtegradiententrennung (Ficoll-Paque) gewonnen (vgl. A. Boyum, Scand. J. Immunol., 5, Suppl 5, 9, 1976).
2 x 10^7 Zellen/ml wurden in Ca2+-haltigem Dulbecco-Phosphat-Puffer suspendiert und in Anwesenheit bzw. Abwesenheit von Lipoxygenasehemmer mit dem Calcium-Ionophor A 23187 stimuliert.
Nach 15 Minuten wurden die Lipoxygenaseprodukte aus dem angesäuerten Inkubationsmedium extrahiert und mittels HPLC getrennt. Die Hochdruckflüssigkeitschromatographie wurde auf Lichrosorb RP-18(5 µm)-Säulen durchgeführt. Das Laufmittel war Methanol/Wasser/Eisessig 69/ 31/0.01. Die Flußrate betrug 1 ml/min. Leukotrien B4 wurde bei 280 nm, die HETE-Derivate bei 232 nm mittels der UV-Absorption bestimmt.

As to `O=C1CCCC2=C1Sc1ccccc1N2` [Herstellungs-beispiel 16], the Überlebensrate % in test [1] is given as 66,6%. In the case of `CC(Cc1ccc(O)c(O)c1)C(C)Cc1ccc(O)c(O)c1` (stereo not shown) [NDGA, Nordihydroguaretsäure], the inhibition at 0.5 µg/mL on 5-Lipoxygenase (0.25 h, read-out: Hemmung) is about 50%.

Turning to `CSCCOC(=O)C1=C(C)Nc2ccccc2S1` [Herstellungsbeispiel 7], in the test on Prostacyclin (PGI2), the “Fähigkeit von Aortenringen Prostacyclin zu synthetisieren” value is “erhöht”.

`CC(C(=O)O)c1ccc2oc(-c3ccc(Cl)cc3)nc2c1` (stereo not shown) [Benoxaprofen] showed a pIC50 against 5-Lipoxygenase of 3.78 to 4.48.
